Experimental data: US5863935A, “Therapeutic heterocyclic compounds” (Zeneca Limited, priority 1990, dated 1999)

How the values were obtained:
"5-HT1 -like" receptor = "5-HT1 -like" receptor (Oryctolagus cuniculus, UniProt P49144); experiment: Agonist activity, contraction of rabbit lateral saphenous vein rings
cynomolgus monkeys = settings: cynomolgus monkey, in vivo, po, 50 mg/kg
Procedure: (§1) The hydrochloride salt of the compound of Synthetic Examples 2/3 was administered orally by gavage to Wistar rats as a solution in distilled water at dosages of 25, 100 and 200 mg/kg base and to Beagle dogs at dosages of 0.25, 0.50, 1.0 and 2.0 mg/kg base once a dav for 14 days. In a separate dog study over 30 days, the dosage of the free base was increased from 2 mg/kg on Day 1 to 100 mg/kg on Day 30. The free base was also administered orally to cynomolgus monkeys at a dosage of 50 mg/kg once a day for 15 days.

dog = experiment: 30-day escalating-dose toxicity study in dogs; assay type: in vivo; settings: free base, 30 days, dosage increased from 2 mg/kg on Day 1 to 100 mg/kg on Day 30
Procedure: as §1

Beagle dogs = experiment: 14-day oral toxicity in Beagle dogs; assay type: in vivo, dog; settings: hydrochloride salt, oral gavage, Beagle dogs, 0.25, 0.50, 1.0 and 2.0 mg/kg base once a day for 14 days
Procedure: as §1

Sequence of "5-HT1 -like" receptor (P49144 whole entry): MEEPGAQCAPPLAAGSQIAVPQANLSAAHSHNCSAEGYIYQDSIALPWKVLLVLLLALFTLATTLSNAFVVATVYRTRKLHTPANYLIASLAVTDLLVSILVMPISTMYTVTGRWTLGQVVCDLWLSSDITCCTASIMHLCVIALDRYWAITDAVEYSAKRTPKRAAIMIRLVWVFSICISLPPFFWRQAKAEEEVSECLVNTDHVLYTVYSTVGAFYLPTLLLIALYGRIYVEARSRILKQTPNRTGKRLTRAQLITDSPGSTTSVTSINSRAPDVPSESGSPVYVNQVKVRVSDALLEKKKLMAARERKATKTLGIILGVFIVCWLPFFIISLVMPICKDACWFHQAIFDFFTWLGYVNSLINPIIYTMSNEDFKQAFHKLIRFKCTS

Compound | EC50 ("5-HT1 -like" receptor) [nM] | Toxicity (cynomolgus monkeys) | Toxicity (dog) | Toxicity (Beagle dogs)
CN1CCC(c2c[nH]c3ccc(CC4COC(=O)N4)cc23)CC1 (racemic) [4/5, (±)-3-(1-methyl-4-piperidyl)-5-(2-oxo-1,3-oxazolidin-4-yl-methyl)-1H-indole] | 501 | – | – | –
CN(C)CCc1c[nH]c2ccc(C[C@H]3COC(=O)N3)cc12 [2/3, (S)-N,N-dimethyl-2-[5-(2-oxo-1,3-oxazolidin-4-ylmethyl)-1H-indol-3-yl]ethylamine 0.9 isopropanolate 0.5 hydrate] | 100 | No evidence of toxicity | No evidence of toxicity | No evidence of toxicity
